Assay results as given in paper PMC4766415 (Nature Communications, 2016).
Where two headings read alike, the source gives them in different places.

Legend:
[1] = test system: WT and V30M-TTR tetramers in plasma; assay: TTR tetramer stability in human plasma by IEF under semi-denaturing conditions; type: biochemical; conditions: 1.4 mM, overnight 4 °C, 4 M urea
[2] = test system: T1, TTR in human plasma (WT-TTR and V30M-TTR); assay: [125I]T4 competition in human plasma, native gel electrophoresis; type: binding; conditions: 1 mM; plasma from normal (WT-TTR) and V30M-TTR FAP patient; 1 h RT
T1 construct: human plasma from a normal (WT-TTR) and from an FAP patient carrying the V30M-TTR mutation; from tissue; host or cells: human plasma of normal donors and of V30M-TTR carriers
Source text: Error bars indicate s.e.m. (n=3). […] Error bars indicate s.e.m. (n=3).

[3] = target: V122I-TTR; design: method as in PMID 23716704; conditions: subunit exchange assays; cited from earlier work
[4] = test system: Rat Schwannoma cells (RN22); assay: Caspase-3 activation by Y78F-TTR oligomers in RN22 cells; conditions: Y78F-TTR aggregates 2 μM formed with 20 μM compound; 24 h exposure
[5] = test system: TTR; design: method as in Vyndaqel European Public Assessment Report (EMA/815723/2011); conditions: single dose of 120 mg; ref Vyndaqel European Public Assessment Report (EMA/815723/2011); cited from earlier work
[6] = design: method as in Vyndaqel European Public Assessment Report (EMA/815723/2011); conditions: single dose of 120 mg; ref Vyndaqel European Public Assessment Report (EMA/815723/2011); cited from earlier work
[7] = test system: AC16 cells; assay: TTR-induced cytotoxicity in AC16 cells, resazurin reduction assay; type: cell-based, human; conditions: 16 μM compound, 8 μM TTR; 24 h
Source text: Error bars indicate s.e.m. […] Error bars indicate s.e.m. (n=4). […] Error bars indicate s.e.m. (n=3).

[8] = test system: T2, L55P-TTR; assay: Dot-blot filter assay of L55P-TTR aggregation secreted by RN22 cells; type: cell-based, human; conditions: 1 μM in the medium
T2 construct: TTR is composed of four identical 127 amino-acid residue β-sheet-rich subunits; expressed in transfected cells; host or cells: rat Schwannoma RN22 cells, metallothionein promoter, ZnSO4 induction
Experimental: The extent of extracellular L55P-TTR aggregation was monitored by a filter trap assay followed by TTR immunodetection.
The rat Schwannoma cell line RN22 stably co-transfected with TTR L55P cDNA under the control of the metallothionein promoter was used to test the inhibitors of TTR aggregation as in ref. [51]. […] TTR in the medium was quantified by ELISA, and the volume of medium corresponding to 500 ng of TTR was applied on to a 0.2-μm pore cellulose acetate membrane filter (Schleicher and Schuell) using a manifold system (Gibco BRL) to separate soluble proteins from aggregates. […] Detection was performed with ECL (GE Healthcare). Dot blot quantification was performed using the ImageQuant program. The percentage of aggregation inhibition was calculated as 100 × ((Control—Treated)/Control). Experiments were repeated three times in triplicate.

[9] = target: Y78F-TTR (Homo sapiens, UniProt P02766, Y98F); assay: Y78F-TTR aggregation inhibition, turbidity at 340 nm, pH 4.2
[10] = test system: FAP; design: method as in PMID 24368466; conditions: patients with FAP, 2 years treatment; cited from earlier work
[11] = design: method as in PMID 17107884; conditions: cited from earlier work
[12] = target: TTR; design: method as in PMID 14968122; conditions: cited from earlier work

RA (%): percent reduction of TTR aggregation rate at high inhibitor concentration [9] [%]	Compound	TTR tetramer stabilization in plasma [1]	radioactive T4-TTR band in the presence of compound [2]	Kd2 estimate [3]	reduction in Caspase-3 activation [4]	average percent stabilization of TTR [5] [%]	average concentration in plasma at Tmax [6] [µM]	effect on WT-TTR and V122I-TTR induced reduction in cell viability [7]	reduction of L55P-TTR aggregation compared with untreated cells [8] [%]	effect on progression of neurological impairment [10]	concentration in serum after oral administration [11] [µM]	Kd ([12]; read-out: Kd1) [nM]	Kd ([12]; read-out: Kd2) [nM]
59.57	O=C(O)c1ccc2nc(-c3cc(Cl)cc(Cl)c3)oc2c1 [tafamidis]	stabilized WT and V30M-TTR tetramers in plasma	no longer visible	in the μM range	11.6%±4.0	189	14.4	rescued this toxic effect	~90	–	–	–	–
–	O=C(O)c1cc(-c2ccc(F)cc2F)ccc1O [diflunisal]	–	–	–	–	–	–	–	–	reduced the rate of progression of neurological impairment	> 140	75	1100
